Laboratory results reported in patent publication US4294843A, “Anti-protozoal oxadiazole derivatives” (Burroughs Wellcome Co., priority 1978, dated 1981).

How the values were obtained:
[1] = LD50 in female rats, oral by gavage; settings: rat, in vivo, 10% w/v suspension in corn oil
Description: 1. The LD50 of the compound of Example 3, both as the free base and the hydrochloride salt was determined in female rats by standard techniques the compound being administered as a 10% w/v suspension in corn oil orally by gavage.

LD50 in mice, oral = settings: mouse, in vivo, suspension of 0.25% Celacol
Description: 2. The LD50 of the compound of Example 3 was determined in mice by standard techniques, the compound being administered orally in a suspension of 0.25% Celacol.

Work on `Nc1ccccc1SCc1ncon1` [Example 3, 3-(2-Aminophenylthiomethyl)-1,2,4-oxadiazole] yielded an LD50 [1] of 79.4 mg/kg and an LD50 (LD50 in mice, oral) of ~45 mg/kg.
